Structures are written as SMILES. Structures can show the parent of a compound that is named as a salt.

For the first experiment, the target named is human PDE1B enzyme (Homo sapiens (Human), UniProt Q01064). The experiment can be described thus: IMAP TR-FRET PDE1B enzymatic assay. It is filed as biochemical. To be noted: negative log of half-maximal molar inhibitory concentration; 200 nM FAM-cAMP; values given as bins. As to the method:
PDE1B inhibition was determined by an IMAP TR-FRET assay. The IMAP TR-FRET PDE assay was optimized for concentration of enzyme, Calmodulin, cAMP or cGMP substrate, DMSO tolerance, and incubation time.
Into each well of a solid white 1536 well plate (Corning) was dispensed 250 pg full-length recombinant NH-terminal GST tagged human PDE1B enzyme (BPS Bioscience Cat #60011, San Diego, CA) in 2.5 μL IMAP BSA reaction buffer (Molecular Devices, Sunnyvale, CA) containing 10 U/ml Calmodulin and 2.5 mM CaCl2) (Sigma Aldrich.) After a brief centrifugation, 30 nL of compound was added by transfer from 1 mM stock in DMSO using a Kalypsys 1536 Pintool. Plates were incubated for 5 minutes at room temperature before dispensing 1.5 μL of 533 nM 5-carboxy fluorescein (FAM)-labeled cAMP (Molecular Devices, Sunnyvale, CA) for a final concentration of 200 nM. After a brief centrifugation, the plates were incubated for 30 minutes at room temperature. The assay was terminated by adding 5 μL IMAP binding reagent/Tb complex (Molecular Devices, Sunnyvale, CA) to each well.
Plates were incubated for 1 hour at room temperature and were read on a Viewlux multimode plate reader (Perkin Elmer). The instrument was set to excite using the DUG11 filter and measure using 490/10 nm and 520/10 nm filters. Ratios of acceptor and donor were then calculated.
For IC50 calculations, the values of % efficacy versus a series of compound concentrations were then plotted using non-linear regression analysis of sigmoidal dose-response curves generated with the equation Y=[B+(T−B)]/[1+10((Log EC50−X)×Hill Slope)], where Y=percent activity, B=minimum percent efficacy, T=maximum percent efficacy, X=logarithm of compound and Hill Slope=slope factor or Hill coefficient. The IC50 value was determined by the concentration causing a half-maximal percent efficacy.
Turning to `Cc1oc2ncnc(NC3(C)CC3)c2c1C(=O)NCc1ccc(OCF)cn1` [Example 11, N-((5-(Fluoromethoxy)pyridin-2-yl)methyl)-6-methyl-4-((1-methylcyclopropyl)amino)furo[2,3-d]pyrimidin-5-carboxamide], the “PDE1b (pIC50)” value is recorded as more than 8.

For `Cc1oc2ncnc(NC3(C)CC3)c2c1C(=O)N1CC=C(c2cnc(C#N)c(F)c2)CC1` [Example 12, 3-Fluoro-5-(1-{6-methyl-4-[(1-methylcyclopropyl)amino]furo[2,3-d]pyrimidine-5-carbonyl}-1,2,3,6-tetrahydropyridin-4-yl)pyridine-2-carbonitrile], the “PDE1b (pIC50)” value is given as more than 8.

Regarding `COc1ncc(C2=CCN(C(=O)c3c(C)oc4ncnc(NC5(C)CC5)c34)CC2)cc1F` [Example 13, 5-[4-(5-Fluoro-6-methoxypyridin-3-yl)-1,2,3,6-tetrahydropyridine-1-carbonyl]-6-methyl-N-(1-methylcyclopropyl)furo[2,3-d]pyrimidin-4-amine], the “PDE1b (pIC50)” value is listed as more than 8.

On to `COc1ncc(C2CCN(C(=O)c3c(C)oc4ncnc(NC5(C)CC5)c34)CC2)cc1F` [Example 14, 5-[4-(5-Fluoro-6-methoxypyridin-3-yl)piperidine-1-carbonyl]-6-methyl-N-(1-methylcyclopropyl)furo[2,3-d]pyrimidin-4-amine], for which the “PDE1b (pIC50)” value is more than 8.

On to `Cc1oc2ncnc(NC3(C)CC3)c2c1C(=O)N1CCc2c(OCCF)ccnc2C1` [Example 20, 5-[4-(2-Fluoroethoxy)-5,6,7,8-tetrahydro-1,7-naphthyridine-7-carbonyl]-6-methyl-N-(1-methylcyclopropyl)furo[2,3-d]pyrimidin-4-amine trifluoroacetate], for which the “PDE1b (pIC50)” value is on record as more than 8.

`Cc1oc2ncnc(NC3(C)CC3)c2c1C(=O)N1CCC(c2ccnc(F)c2)C1` (centres unmarked) [Example 21, 5-[3-(2-Fluoropyridin-4-yl)pyrrolidine-1-carbonyl]-6-methyl-N-(1-methylcyclopropyl)furo[2,3-d]pyrimidin-4-amine]: the “PDE1b (pIC50)” value is recorded as more than 8.

On to `CCOc1ncnc2c1CCN(C(=O)c1c(C)oc3ncnc(NC4(C)CC4)c13)C2` [Example 25, 5-{4-Ethoxy-5H,6H,7H,8H-pyrido[3,4-d]pyrimidine-7-carbonyl}-6-methyl-N-(1-methylcyclopropyl)furo[2,3-d]pyrimidin-4-amine], for which the “PDE1b (pIC50)” value is on record as more than 8.

`Cc1oc2ncnc(NC3(C)CC3)c2c1C(=O)N1CCC(c2nccc(NCCF)n2)CC1` [Example 26, (4-(4-((2-Fluoroethyl)amino)pyrimidin-2-yl)piperidin-1-yl)(6-methyl-4-((1-methylcyclopropyl)amino)furo[2,3-d]pyrimidin-5-yl)methanone]: the “PDE1b (pIC50)” value is reported as more than 8.

Consider `COc1nc(C(C)C)nc2c1CCN(C(=O)c1c(C)oc3ncnc(NC4(C)CC4)c13)C2` [Example 27, 5-[4-Methoxy-2-(propan-2-yl)-5H,6H,7H,8H-pyrido[3,4-d]pyrimidine-7-carbonyl]-6-methyl-N-(1-methylcyclopropyl)furo[2,3-d]pyrimidin-4-amine], for which the “PDE1b (pIC50)” value is given as more than 8.

Staying with this experiment, now noted: negative log of half-maximal molar inhibitory concentration; 200 nM FAM-cAMP; values given as bins; read-out: PDE1b (pIC50) (converted).
For the molecule `Cc1oc2ncnc(NC3(C)CC3)c2c1C(=O)N1CCc2c(F)ncnc2C1` [Example 5, (4-Fluoro-5,8-dihydropyrido[3,4-d]pyrimidin-7(6H)-yl)(6-methyl-4-((1-methylcyclopropyl)amino)furo[2,3-d]pyrimidin-5-yl)methanone], the IC50 was 0.01 to 0.1 µM.

Regarding `Cc1oc2ncnc(NC3(C)CC3)c2c1C(=O)N1CCc2c(Cl)ncnc2C1` [Example 6, 5-{4-chloro-5H,6H,7H,8H-pyrido[3,4-d]pyrimidine-7-carbonyl}-6-methyl-N-(1-methylcyclopropyl)furo[2,3-d]pyrimidin-4-amine], the IC50 is 0.01 to 0.1 µM.

As to `Cc1oc2ncnc(NC3(C)CC3)c2c1C(=O)N1CCc2c(ncnc2NCCF)C1` [Example 7, 5-{4-[(2-Fluoroethyl)amino]-5H,6H,7H,8H-pyrido[3,4-d]pyrimidine-7-carbonyl}-6-methyl-N-(1-methylcyclopropyl)furo[2,3-d]pyrimidin-4-amine trifluoroacetate], the IC50 is 0.01 to 0.1 µM.

Regarding `Cc1oc2ncnc(NC3(C)CC3)c2c1C(=O)NCc1cnc(Cl)cn1` [Example 8, N-((5-Chloropyrazin-2-yl)methyl)-6-methyl-4-((1-methylcyclopropyl)amino)furo[2,3-d]pyrimidine-5-carboxamide], the IC50 was 0.01 to 0.1 µM.

`Cc1oc2ncnc(NC3(C)CC3)c2c1C(=O)NCc1cnc(F)cn1` [Example 9, N-((5-Fluoropyrazin-2-yl)methyl)-6-methyl-4-((1-methylcyclopropyl)amino)furo[2,3-d]pyrimidine-5-carboxamide]: the IC50 was 0.01 to 0.1 µM.

As for `Cc1oc2ncnc(NC3(C)CC3)c2c1C(=O)NCc1ccc(O)cn1` [Example 10, N-[(5-Hydroxypyridin-2-yl)methyl]-6-methyl-4-[(1-methylcyclopropyl)amino]furo[2,3-d]pyrimidin-5-carboxamide], the IC50 was 0.01 to 0.1 µM.

`Cc1oc2ncnc(NC3(C)CC3)c2c1C(=O)N1CC=C(c2ncc(F)cn2)CC1` [Example 15, 5-[4-(5-Fluoropyrimidin-2-yl)-1,2,3,6-tetrahydropyridine-1-carbonyl]-6-methyl-N-(1-methylcyclopropyl)furo[2,3-d]pyrimidin-4-amine]: the IC50 is 0.01 to 0.1 µM.

With `Cc1oc2ncnc(NC3(C)CC3)c2c1C(=O)N1CCc2c(ncn(CF)c2=O)C1` [Example 16, 3-(Fluoromethyl)-7-{6-methyl-4-[(1-methylcyclopropyl)amino]furo[2,3-d]pyrimidine-5-carbonyl}-3H,4H,5H,6H,7H,8H-pyrido[3,4-d]pyrimidin-4-one], the IC50 was 0.01 to 0.1 µM.

In the case of `Cc1oc2ncnc(NC3(C)CC3)c2c1C(=O)N1CCc2c(ncnc2OCF)C1` [Example 17, 5-[4-(fluoromethoxy)-5H,6H,7H,8H-pyrido[3,4-d]pyrimidine-7-carbonyl]-6-methyl-N-(1-methylcyclopropyl)furo[2,3-d]pyrimidin-4-amine], the IC50 is 0.01 to 0.1 µM.

As for `Cc1oc2ncnc(NC3(C)CC3)c2c1C(=O)N1CCc2c(ncnc2N2CC[C@@H](F)C2)C1` [Example 18, 5-{4-[(3R)-3-Fluoropyrrolidin-1-yl]-5H,6H,7H,8H-pyrido[3,4-d]pyrimidine-7-carbonyl}-6-methyl-N-(1-methylcyclopropyl)furo[2,3-d]pyrimidin-4-amine], the IC50 is 0.01 to 0.1 µM.

`Cc1oc2ncnc(NC3(C)CC3)c2c1C(=O)N1CCc2c(O)ccnc2C1` [Example 19, 7-{6-methyl-4-[(1-methylcyclopropyl)amino]furo[2,3-d]pyrimidine-5-carbonyl}-5,6,7,8-tetrahydro-1,7-naphthyridin-4-ol]: the IC50 was 0.1 to 1 µM.

As to `Cc1oc2ncnc(NC3(C)CC3)c2c1C(=O)N1CCc2c(nc(C(C)C)[nH]c2=O)C1` [Example 22, 2-Isopropyl-7-(6-methyl-4-((1-methylcyclopropyl)amino)furo[2,3-d]pyrimidine-5-carbonyl)-5,6,7,8-tetrahydropyrido[3,4-d]pyrimidin-4(3H)-one], the IC50 is 0.01 to 0.1 µM.

For the molecule `CCc1ncnc2c1CCN(C(=O)c1c(C)oc3ncnc(NC4(C)CC4)c13)C2` [Example 23, 5-{4-Ethyl-5H,6H,7H,8H-pyrido[3,4-d]pyrimidine-7-carbonyl}-6-methyl-N-(1-methylcyclopropyl)furo[2,3-d]pyrimidin-4-amine], the IC50 is 0.01 to 0.1 µM.

On to `Cc1oc2ncnc(NC3(C)CC3)c2c1C(=O)N1CCc2c(C#N)ncnc2C1` [Example 24, 7-(6-Methyl-4-((1-methylcyclopropyl)amino)furo[2,3-d]pyrimidine-5-carbonyl)-5,6,7,8-tetrahydropyrido[3,4-d]pyrimidine-4-carbonitrile], for which the IC50 is 0.1 to 1 µM.

As for `COc1cc(CN(C(=O)c2c(C)oc3ncnc(NC4(C)CC4)c23)C2CC2)ncn1` [Example 28, N-Cyclopropyl-N-[(6-methoxypyrimidin-4-yl)methyl]-6-methyl-4-[(1-methylcyclopropyl)amino]furo[2,3-d]pyrimidine-5-carboxamide], the IC50 was 0.01 to 0.1 µM.

As to `CCc1nc(C2CC2)n2c1CN(C(=O)c1c(C)oc3ncnc(NC4(C)CC4)c13)CC2` [Example 29, 5-{3-Cyclopropyl-1-ethyl-5H,6H,7H,8H-imidazo[1,5-a]pyrazine-7-carbonyl}-6-methyl-N-(1-methylcyclopropyl)furo[2,3-d]pyrimidin-4-amine], the IC50 was 0.1 to 1 µM.

With `Cc1oc2ncnc(NC3(C)CC3)c2c1C(=O)N1C[C@@H]2C(c3ccccn3)[C@@H]2C1` (stereo partly drawn) [Example 30, 6-methyl-N-(1-methylcyclopropyl)-5-[(1R,5S,6S)-6-(pyridin-2-yl)-3-azabicyclo[3.1.0]hexane-3-carbonyl]furo[2,3-d]pyrimidin-4-amine], the IC50 is 0.01 to 0.1 µM.

The values above are taken from patent US20250145633A1, “SUBSTITUTED FURANOPYRIMIDINE COMPOUNDS AS PDE1 INHIBITORS” (Dart NeuroScience, LLC, priority 2017, published 2025).
